In US11926631B2, “Method of treating cancer using amanitin derivatives” (Heidelberg Pharma Research GmbH, priority 2017, dated 2024):
*1 amine or outer side, *2 acyl side, *3 side chain or, on linkers, in order; H or OH if unused. Where a SMILES comes first, the peptide text is derived from it. Bridges are numbered along the chain shown (N, C = ends). [ ]: non-standard residue; d: D form. ξ: configuration not given here. Ile(4R-OH,5-OH) = C[C@H]([C@H](N)C(=O)O)[C@@H](O)CO; X2 = Nc1ccc2c(CC(N[*:1])C(=O)[*:2])c([*:3])[nH]c2c1; X1 = O=C([C@@H]1CC(O)CN1[*:1])[*:2]; ξC = NC(CS)C(=O)O

Legend:
[1] = biological target: DNA-dependent RNA polymerase II (Homo sapiens, UniProt P24928+P30876); details: background statement, no test in the patent; read-out: KD of the complex with RNA-polymerase II; cited from earlier work
[2] = BrdU cell proliferation assay (cytotoxicity) on HEK293 OATP1B3 cells; format: cell-based; details: human, 96 h incubation, BrdU assay (FIG. 4)
Protocol: (§1) BrdU Cell Proliferation Assay on HEK293 and HEK293 OATP1B3 cells
HEK293-OATP1B3 cell culture plates were coated with poly-D-lysine.
Coating with Poly-D-Lysine: • 5 mg poly D-lysine in 50 ml sterile water • 50 μl in each well of a 96 well plate • Incubation for 1 h at RT • Washing of wells twice with 200 μl sterile water • Drying for at least for 2 h (RT)
(§2) Black 96-well plates with clear bottom with 2.0×10^3 HEK293 and HEK293 OATP1B3 cells/well and 90 μl growth medium per well including 10% FCS and supplements were prepared. Controls: “Blank” was set up with 100 μl medium without cells, “Background” and “100%” were set up with cells in 100 μl medium.
(§3) Incubation for 24 h at 37° C. and 5% CO2.
(§4) Dilution Scheme of HDP 30.2528 and Alpha-Amanitin:
(§5) The stock solutions were diluted 1:1,000 (1:10 and 1:100 dilution) in medium: • 10 μl Amanitin derivative stock solution (1.0×10^−2 M)+90 μl PBS=100 μl 1.0×10^−3 M • 2 μl dilution+198 μl medium=200 μl 1×10^−5 M
Further Dilutions: • A: 200 μl 1.0×10^−5 M • B: 80 μl growth medium+20 μl solution A (1:5 dilution) • C: 80 μl growth medium+20 μl solution B (1:5 dilution) • D: 80 μl growth medium+20 μl solution C (1:5 dilution) • E: 80 μl growth medium+20 μl solution D (1:5 dilution) • F: 80 μl growth medium+20 μl solution E (1:5 dilution) • G: 80 μl growth medium+20 μl solution F (1:5 dilution) • H: 80 μl growth medium+20 μl solution G (1:5 dilution) […]

[3] = BrdU cell proliferation assay (cytotoxicity) on HEK293 cells; format: cell-based; details: human, 96 h incubation, BrdU assay (FIG. 4)
Protocol: as §1, §2, §3, §4, §5
Further Dilutions: • A: 200 μl 1.0×10^−5 M • B: 80 μl growth medium+20 μl solution A (1:5 dilution) • C: 80 μl growth medium+20 μl solution B (1:5 dilution) • D: 80 μl growth medium+20 μl solution C (1:5 dilution) • E: 80 μl growth medium+20 μl solution D (1:5 dilution) • F: 80 μl growth medium+20 μl solution E (1:5 dilution) • G: 80 μl growth medium+20 μl solution F (1:5 dilution) • H: 80 μl growth medium+20 μl solution G (1:5 dilution)
10 μl of each solution were added to well triplicates. […]

Compound | Kd [1] [nM] | EC50 at 96 h [2] [nM] | EC50 at 96 h [3] [nM]
amanitin | 3 |  | 
CC[C@H](C)[C@@H]1NC(=O)CNC(=O)C2Cc3c([nH]c4cc(N)ccc34)SCC(NC(=O)CNC1=O)C(=O)N[C@@H](CC(N)=O)C(=O)N1CC(O)C[C@H]1C(=O)N[C@@H]([C@@H](C)[C@@H](O)CO)C(=O)N2 (stereo partly drawn) [HDP 30.2528, 6′-amino-amaninamide] (cyclo(GIG[ξC]N[X1][Ile(4R-OH,5-OH)][X2]); thioether 4-8) |  | 30 | 3000
